The subject of test [1] is crushed spinal cord ventral white matter strip. As to the kind of experiment: Potassium channel blockade (4-AP) as adjunct to PEG-mediated recovery of CAP conduction. Further details: species or system guinea pig. The conditions noted are these: for Enhancement of recovered CAP by 4-AP, group data: 5 cords; for Enhancement of recovered CAP by 4-AP: reversible. How it is done: The above-described technique should be considered as a basic one, from which testing of several variations described below was performed. For example, tests were made of the response of “recovering” axons to the additional application of the fast potassium channel blocker, 4 aminopyridine (4-AP). In this trial, 5 separate cords were treated with an application of PEG as described above and compared to 5 control cords. One hour after compression, 100 pM 4-AP (in Krebs' solution) was applied for 15 minutes and then washed free with normal Krebs' solution as described above.
Spinal cords were crushed, isolated and treated with PEG as described in Example 1. Analysis was also performed in the double sucrose recording chamber as described in Example 1.

Test [2] has the same test system. The conditions noted are these: in vitro; Shi and Borgens 1999; cited from earlier work.

Turning to `Nc1ccncc1` [4-AP, 4-aminopyridine], the “Enhancement of recovered CAP by 4-AP, group data” value is given as “about 70%” in test [1] (PEG-treated (experimental) group) and “about 40%” in test [1] (control group (crushed, no PEG)). The “Enhancement of recovered CAP by 4-AP” value in test [1] (PEG-treated cord, 4-AP at 1 hour post PEG application, individual test) is “about 70%”; in test [1] (crushed cord untreated with PEG, 100 pM 4-AP at 1 hour post injury, single test), “about 40%”. For the same compound, the “Magnitude of the recovered CAP after local 4-aminopyridine in PEG-repaired cord” value in test [2] is “nearly doubles”.

The values are drawn from patent publication US8460646B2, “Methods and compositions for treating mammalian nerve tissue injuries” (Purdue Research Foundation, priority 1998, dated 2013).
